Assay results from PubChem BioAssay AID1117324 (Cheminformatics & Chemogenomics Research Group (CCRG), …, 2015).
Active and inactive are the calls of the source. The rule behind the calls is not given here.

Tested on: VEGF-stimulated ADSC/ECFC co-culture, nuclear area imaging
Assay: nuclear area loss in endothelial-stromal co-culture, dose response, cell-based, VEGF stimulation, IC50 (AID 1117324)

| Compound | IC50 |
| --- | --- |
| Cc1cccc(C)c1NC(=O)CN1CCN(CCCC(c2ccc(F)cc2)c2ccc(F)cc2)CC1 | 9.37 µM (inactive) |
| NC(=NCCCCCCN=C(N)/N=C(\N)Nc1ccc(Cl)cc1)/N=C(\N)Nc1ccc(Cl)cc1 | > 10 µM (inactive) |
| Clc1cc(Cl)c(OCC#CI)cc1Cl | > 10 µM (inactive) |
| CCCCCCCCCCCCCCCC[N+](C)(C)CCN(Cc1ccc(OC)cc1)c1ncccn1 | > 10 µM (inactive) |
| CO[C@@]12[C@H](COC(N)=O)C3=C(C(=O)C(C)=C(N)C3=O)N1C[C@@H]1N[C@@H]12 | 5.96 µM (inactive) |
| S=C=Nc1ccc(N=C=S)cc1 | > 10 µM (inactive) |
| OCCN1CCN(CCCN2c3ccccc3Sc3ccc(C(F)(F)F)cc32)CC1 | > 10 µM (inactive) |
| COc1ccc([C@@H]2Sc3ccccc3NC(=O)[C@@H]2O)cc1 | > 10 µM (inactive) |
| COc1ccccc1N1CCN(CC(O)COc2cc(OC)c(OC)c(OC)c2)CC1 (stereo unspecified) | > 10 µM (inactive) |
| CCCCN1CCCC1C(=O)Nc1c(C)cc(C)cc1C (stereo unspecified) | > 10 µM (inactive) |
| COC(=O)C1=C(C)NC(C)=C(C(=O)O[C@@H]2CCCN(Cc3ccccc3)C2)[C@@H]1c1cccc([N+](=O)[O-])c1 | > 10 µM (inactive) |
| OC[C@@H](O)[C@H](O)[C@H](O)[C@@H](O)CO | > 10 µM (inactive) |
| O=C1OC(OC(=O)c2cccnc2Nc2cccc(C(F)(F)F)c2)c2ccccc21 (stereo unspecified) | > 10 µM (inactive) |
| CCCCCCCCCCCC[N+](C)(C)Cc1ccccc1 | 6.93 µM (inactive) |
| Cc1ccc([N+](=O)[O-])[c]2c1[O][Hg]2 | 1.09 µM |
| Cc1c(C)c2c(c(C)c1OC(=O)CCC(=O)O)CC[C@@](C)(CCC[C@H](C)CCC[C@H](C)CCCC(C)C)O2 | > 10 µM (inactive) |
| O=C(Nc1ccc(Br)cc1)c1cc(Br)cc(Br)c1O | > 10 µM (inactive) |
| CCCCCCCCCCCCCCCC(=O)OCC=C(C)C=CC=C(C)C=CC1=C(C)CCCC1(C)C | > 10 µM (inactive) |
| Nc1cc(C(F)(F)F)ccc1S | > 10 µM (inactive) |
| COC(=O)CCCCC(CCSS/C(CCO)=C(\C)N(C=O)Cc1cnc(C)nc1N)SC(C)=O (stereo unspecified) | > 10 µM (inactive) |
| Oc1c(Cl)cc(Cl)cc1Sc1cc(Cl)cc(Cl)c1O | > 10 µM (inactive) |
| CN(C)c1ccc(C(=C2C=CC(=[N+](C)C)C=C2)c2ccccc2)cc1 | 1.72 µM |
| CCCCC(CC)COC(=O)CC(C(=O)OCC(CC)CCCC)S(=O)(=O)O (stereo unspecified) | > 10 µM (inactive) |

| Compound | IC50 |
| --- | --- |
| CCOP(=S)(OCC)SCSc1ccc(Cl)cc1 | > 10 µM (inactive) |
| CO[C@H]1O[C@@H]2O[C@@]3(C)CC[C@H]4[C@H](C)CC[C@@H]([C@@H]1C)[C@@]24OO3 | > 10 µM (inactive) |
| COC(=O)N[C@H](C(=O)N[C@@H](Cc1ccccc1)[C@@H](O)CN(Cc1ccc(-c2ccccn2)cc1)NC(=O)[C@@H](NC(=O)OC)C(C)(C)C)C(C)(C)C | > 10 µM (inactive) |
| CCCCC1C(=O)N(c2ccccc2)N(c2ccc(O)cc2)C1=O (stereo unspecified) | 8.83 µM (inactive) |
| CCCCC[C@@H](O)CC[C@H]1[C@@H]2Cc3cccc(OCC(=O)O)c3C[C@@H]2C[C@@H]1O | > 10 µM (inactive) |
| CC[C@@]1(O)C(=O)OCc2c1cc1n(c2=O)Cc2c-1nc1ccccc1c2/C=N/OC(C)(C)C | 0.799 µM |
| CCCCCCOC(=O)c1cccnc1 | > 10 µM (inactive) |
| CSc1ccc2c(c1)C(N1CCN(C)CC1)Cc1ccccc1S2 (stereo unspecified) | > 10 µM (inactive) |
| O=C(O)C1(C(=O)O)CCC1.[NH2-].[NH2-].[Pt+2] | > 10 µM (inactive) |
| O=C1NC2CCCCN2C12CCN(CCCN1c3ccccc3CCc3ccc(Cl)cc31)CC2 (stereo unspecified) | > 10 µM (inactive) |
| COc1cc(NCc2ccc3nc(N)nc(N)c3c2C)cc(OC)c1OC | > 10 µM (inactive) |
| CCN(CC)CCOc1ccc(/C(=C(\Cl)c2ccccc2)c2ccccc2)cc1 | > 10 µM (inactive) |
| CC[C@]1(O)C[C@H]2CN(CCc3c([nH]c4ccccc34)[C@@](C(=O)OC)(c3cc4c(cc3OC)N(C=O)[C@H]3[C@@](O)(C(=O)OC)[C@H](OC(C)=O)[C@]5(CC)C=CCN6CC[C@]43[C@@H]65)C2)C1 | > 10 µM (inactive) |
| COc1ccc(-c2ccc3cc(C(=O)O)ccc3c2)cc1C12CC3CC(CC(C3)C1)C2 | > 10 µM (inactive) |
| CCN(CC)C(=O)c1cccnc1 | > 10 µM (inactive) |
| O=C(Nc1ccc(Oc2ccc(Cl)cc2)c(Cl)c1)c1cc(I)cc(I)c1O | 6.57 µM (inactive) |
| CCCn1cnc2c1c(=O)n(CCCCC(C)=O)c(=O)n2C | > 10 µM (inactive) |
| CN1CCC[C@@H]1CCO[C@](C)(c1ccccc1)c1ccc(Cl)cc1 | > 10 µM (inactive) |
| Cc1nc2ccccc2n1Cc1ccc(Cl)cc1 | > 10 µM (inactive) |
| CCCCCCCCCCCCCC[N+](C)(C)C | 6.68 µM (inactive) |
| CCCCC(CC)COC(=O)C(C#N)=C(c1ccccc1)c1ccccc1 (stereo unspecified) | 3.29 µM |
| O=c1[nH]sc2cc(Cl)ccc12 | 9.43 µM (inactive) |
| COC(=O)Nc1nc2ccc(C(=O)c3ccccc3)cc2[nH]1 | > 10 µM (inactive) |
